EC50 data for 32 compounds are collected here from US20190284168A1, “PYRAZOLE DERIVATIES AS SGC STIMULATORS” (IRONWOOD PHARMACEUTICALS, INC., priority 2014, published 2019).

Experiment [1] addresses T1, soluble guanylate cyclase (sGC) (Homo sapiens, UniProt Q02108+Q02153).
T1 construct: endogenously expressing soluble guanylate cyclase (sGC); endogenous in cells; host or cells: HEK293
T1 sequence (Q02153 1-619): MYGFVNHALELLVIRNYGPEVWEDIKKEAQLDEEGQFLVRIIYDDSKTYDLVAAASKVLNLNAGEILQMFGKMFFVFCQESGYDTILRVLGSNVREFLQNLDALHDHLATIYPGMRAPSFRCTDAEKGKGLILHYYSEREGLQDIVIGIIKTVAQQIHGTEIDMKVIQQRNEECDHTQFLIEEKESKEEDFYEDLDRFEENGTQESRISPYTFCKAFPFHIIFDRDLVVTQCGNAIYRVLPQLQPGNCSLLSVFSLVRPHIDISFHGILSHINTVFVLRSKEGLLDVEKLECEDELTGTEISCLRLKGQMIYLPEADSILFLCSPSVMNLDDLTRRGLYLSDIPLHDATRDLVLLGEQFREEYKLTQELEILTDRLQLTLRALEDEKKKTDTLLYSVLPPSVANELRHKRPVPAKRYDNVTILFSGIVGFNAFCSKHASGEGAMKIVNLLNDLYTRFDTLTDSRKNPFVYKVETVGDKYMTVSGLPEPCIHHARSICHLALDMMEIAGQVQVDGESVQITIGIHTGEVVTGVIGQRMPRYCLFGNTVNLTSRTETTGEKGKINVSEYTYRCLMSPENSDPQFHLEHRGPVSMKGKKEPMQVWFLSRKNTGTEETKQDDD
T1 sequence (Q02108 1-690): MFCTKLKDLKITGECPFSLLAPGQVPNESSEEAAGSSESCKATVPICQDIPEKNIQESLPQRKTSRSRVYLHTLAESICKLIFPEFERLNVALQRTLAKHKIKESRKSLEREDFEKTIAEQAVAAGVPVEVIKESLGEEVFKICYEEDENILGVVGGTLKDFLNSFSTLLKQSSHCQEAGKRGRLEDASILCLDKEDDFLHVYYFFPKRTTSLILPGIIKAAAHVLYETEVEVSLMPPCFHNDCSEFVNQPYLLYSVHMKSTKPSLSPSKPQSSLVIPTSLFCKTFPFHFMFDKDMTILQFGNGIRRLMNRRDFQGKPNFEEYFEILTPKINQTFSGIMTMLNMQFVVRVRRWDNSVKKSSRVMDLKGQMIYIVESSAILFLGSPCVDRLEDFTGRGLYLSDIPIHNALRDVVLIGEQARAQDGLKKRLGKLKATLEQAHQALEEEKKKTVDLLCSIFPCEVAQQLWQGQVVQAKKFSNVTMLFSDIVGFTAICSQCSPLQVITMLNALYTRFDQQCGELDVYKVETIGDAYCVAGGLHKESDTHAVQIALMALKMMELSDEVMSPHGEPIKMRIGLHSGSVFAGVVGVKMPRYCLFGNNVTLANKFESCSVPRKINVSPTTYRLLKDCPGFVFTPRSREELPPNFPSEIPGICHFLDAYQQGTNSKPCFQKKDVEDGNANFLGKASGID
In words: sGC-HEK-cGMP assay with LC/MS detection. It counts as cell-based. Conditions: HEK293 whole cells, LC/MS detection of cGMP, 10 μM DETA-NONOate; 50% of high control response (30 μM Compound Y); read-out: Absolute EC50 (nM)- binned (~).

Experiment [2] addresses T2, human recombinant soluble guanylate cyclase enzyme α1β1 (Homo sapiens, UniProt Q02108+Q02153).
T2 construct: purchased Enzo Life Sciences ALX-201-177
T2 sequence (Q02108 1-690): T1 sequence (Q02108 1-690)
T2 sequence (Q02153 1-619): T1 sequence (Q02153 1-619)
In words: Purified human recombinant sGC α1β1 enzyme assay in the presence of DETA-NONOate (cGMP HTRF). It counts as biochemical. Conditions: 30 uM DETA NONOate; 50% of maximal response of 30 uM Compound Y; read-out: sGC_Enz_HTRF_a1b1 EC50/IC50 Abs (Norm) (nM) Binned. Here is the method:
Purified human recombinant soluble guanylate cyclase enzyme α1β1 (h sGC) obtained from Enzo Life Sciences (P/N: ALX-201-177) was used to evaluate the activity of test compounds. The assay reactions contained 0.1 M Tris (pH 8.0), 0.5 mg/mL BSA, 2 mM DTT, 4 mM MgCl2, 30 uM DETA NONOate (Enzo Life Science P/N: ALX-430-014), and 12.5 ng/ml human soluble guanylate cyclase enzyme. […] Guanosine 5'-triphosphate (Sigma-Aldrich P/N: […]) was added to a final concentration of 300 μM and enzyme reactions were incubated (100 μL, 384-well plate format) at 37° C. for 20 minutes. The controls contained 3% DMSO (low control), or 30 uM of Compound Y (high control). After the 20 minute incubation, the reaction was stopped with the addition of 100 μL of ice cold 20% acetic acid. cGMP concentrations in all samples were determined using the cGMP HTRF (Cisbio P/N: 62GM2PEC) assay per manufacturer's instructions. A cGMP standard curve was fit using a 4-parameter fit (log(inhibitor) vs. response-variable slope) using GraphPad Prism Software v.6. Samples were diluted appropriately to ensure that values fell within the linear range of the standard curve. Data were fit using a 4-parameter fit (log(agonist) vs. response-variable slope) using GraphPad Prism Software v.6. The EC50 was interpolated from the curve fit and is defined as the concentration at which the compound elicits 50% of the maximal response of the 30 uM of Compound Y, the high control compound.

Another experiment addresses T3, sGC enzyme (Homo sapiens, UniProt Q02108+Q02153).
T3 construct: host or cells: HEK293 cells expressing GloSensor 40F cGMP
T3 sequence (Q02153 1-619): T1 sequence (Q02153 1-619)
T3 sequence (Q02108 1-690): T1 sequence (Q02108 1-690)
As to the kind of experiment: cGMP GloSensor cell-based assay, 384-well format. Conditions: read-out: sGC_HEK_GloSensor EC50/IC50 Abs (Norm) (nM) Binned (~). From the text: Human embryonic kidney cells (HEK293) cells expressing GloSensor™ 40F cGMP (Part No: CS182801, Promega) were used to evaluate the activity of test compounds. The luminescent biosensors (engineered luciferase) that were incorporated into these cells detect cGMP formed by the compounds stimulating the sGC enzyme and emit luminescence.
cGMP GloSensor cells were maintained in Dulbecco's Modification of Eagle's Medium (DMEM) supplemented with fetal bovine serum (FBS) (10% final) and hygromycine (200 ug/ml). The day before assay, cells were plated in DMEM with 10% FBS in a 50 μL volume at a density of 1.5×10^4 cells/well in a poly-D-lysine coated 384-well flat white-bottom plate (Corning Cat No 35661). Cells were incubated overnight at 37° C. in a humidified chamber with 5% CO2. The next day, medium was removed and cells were replaced with 40 ul/well of GloSensor™, 2 mM (Promega Cat No E1291). Cells were treated for 90 minutes at 25° C. to allow the substrate to equilibrate in the cells. Test compounds and Diethylenetriamine NONOate (DETA-NONOate) was diluted to 3 mM (20×) in serum-free CO2 independent medium and serially diluted at 4× dilutions to create 5× dose curve from which 10 ul was added to the wells (x μM concentration for test compound solution and 10 μM concentration for DETA-NONOate solution; wherein x is one of the following final concentrations). • 30000 nM • 7500 nM • 1875 nM • 468.75 nM • 117.19 nM • 29.29 nM • 7.32 nM • 1.83 nM • 0.46 nM • 0.114 nM • 0.029 nM
For the kinetics studies, luminescense was measured right away for 0.2 sec per well with Envision (Perkin Elmer model No). For endpoint SAR screening, data were collected after 55 min incubation at room temperature.
Data analysis was carried out as indicated above in Example 2A.

In the case of `O=S1(=O)Cc2cnc(-c3cc(-c4ccon4)n(Cc4ccccc4F)n3)nc2C1` [Compound 3], the EC50 in experiment [1] was more than 30000 nM; in experiment [2], not above 1000 nM.
For `NC(=O)C(=O)Nc1ccnc(-c2cc(-c3ccon3)n(Cc3ccccc3F)n2)n1` [Compound 4], in that order: more than 1000 nM and not above 1000 nM.
The like results for `Fc1ccccc1Cn1nc(-c2ncc(F)c(Nc3nnc(C(F)(F)F)s3)n2)cc1-c1ccon1` [Compound 11] were, in that order, more than 1000 nM and not above 1000 nM.
With `NC(=O)CC(=O)Nc1ccnc(-c2cc(-c3ccon3)n(Cc3ccccc3F)n2)n1` [Compound 17], the values for the EC50 in experiment [1] and in experiment [2] were more than 30000 nM and not above 1000 nM, respectively.
For `O=C(Nc1ccnc(-c2cc(-c3ccon3)n(Cc3ccccc3F)n2)n1)c1cc(O)no1` [Compound 27], in that order: more than 1000 nM and not above 1000 nM.
The like results for `O=C(CCl)NCC(=O)Nc1ccnc(-c2cc(-c3ccon3)n(Cc3ccccc3F)n2)n1` [Compound 32] were, in that order, 100 to 1000 nM and 100 to 1000 nM.
The like results for `Fc1ccccc1Cn1nc(-c2ncc(N3CCOCC3)cn2)cc1-c1ccon1` [Compound 37] were, in that order, more than 30000 nM and not above 1000 nM.
In the case of `O=C(O)Cc1cn(-c2nc(-c3cc(-c4ccon4)n(Cc4ccccc4F)n3)ncc2F)[nH]c1=O` [Compound 38], the EC50 in experiment [1] is 100 to 1000 nM; in experiment [2], not above 1000 nM.
In the case of `O=C(O)Cc1c[nH]n(-c2nc(-c3cc(-c4ccon4)n(Cc4ccccc4F)n3)ncc2F)c1=O` [Compound 39], the figures for the EC50 in experiment [1] and in experiment [2] were more than 1000 nM and not above 1000 nM, respectively.
With `COC(=O)CCCCNc1nc(-c2cc(-c3ccon3)n(Cc3ccccc3F)n2)ncc1F` [Compound 175, methyl 5-((5-fluoro-2-(1-(2-fluorobenzyl)-5-(isoxazol-3-yl)-1H-pyrazol-3-yl)pyrimidin-4-yl)amino)pentanoate], the EC50 at sGC enzyme was less than 100 nM.
Still for that read-out and setting: the same measure for `OCCCCNc1nc(-c2cc(-c3ccon3)n(Cc3ccccc3F)n2)ncc1F` [Compound 176, 4-((5-fluoro-2-(1-(2-fluorobenzyl)-5-(isoxazol-3-yl)-1H-pyrazol-3-yl)pyrimidin-4-yl)amino)butan-1-ol]: less than 100 nM.
The same measure, in the same setting: under `NCC(=O)OCCCNc1nc(-c2cc(-c3ccon3)n(Cc3ccccc3F)n2)ncc1F` [Compound 177, 3-((5-fluoro-2-(1-(2-fluorobenzyl)-5-(isoxazol-3-yl)-1H-pyrazol-3-yl)pyrimidin-4-yl)amino)propyl 2-aminoacetate] stands less than 100 nM; under `NCC(=O)OCCCCNc1nc(-c2cc(-c3ccon3)n(Cc3ccccc3F)n2)ncc1F` [Compound 178, 4-((5-fluoro-2-(1-(2-fluorobenzyl)-5-(isoxazol-3-yl)-1H-pyrazol-3-yl)pyrimidin-4-yl)amino)butyl 2-aminoacetate], less than 100 nM; under `Cc1ccc(Cn2nc(-c3ncc(F)c(O)n3)cc2-c2ccon2)cc1` [Compound 185], less than 100 nM.
For `Cn1cc(Cn2nc(-c3ncc(F)c(O)n3)cc2-c2ccon2)cn1` [Compound 186], at sGC enzyme, the EC50 was more than 1000 nM.
Same read-out and setting: under `Cc1ccc(Cn2nc(-c3ncc(F)c(O)n3)cc2-c2ccon2)cc1F` [Compound 188] stands less than 100 nM; under `Oc1nc(-c2cc(-c3ccon3)n(Cc3cccnc3)n2)ncc1F` [Compound 189], more than 1000 nM; under `Cc1cc(Cn2nc(-c3ncc(F)c(O)n3)cc2-c2ccon2)on1` [Compound 190], 100 to 1000 nM.
Same read-out and setting: under `CCOC(=O)C(C)(C)c1nnc(-c2cc(-c3ccon3)n(Cc3ccccc3F)n2)nc1O` [Compound 191] stands 100 to 1000 nM.
With `CCOC(=O)C(C)(C)c1nc(-c2cc(-c3ccon3)n(Cc3ccccc3F)n2)nnc1O` [Compound 192], the EC50 on sGC enzyme is more than 1000 nM.
The same measure, in the same setting: the same measure for `Oc1nc(-c2cc(-c3ccon3)n(Cc3cccc(F)c3)n2)ncc1F` [Compound 197]: 100 to 1000 nM.
Still for that read-out and setting: under `CC(=O)c1cc(-c2nncc(N)n2)nn1Cc1ccccc1F` [Compound 198] stands more than 1000 nM; under `CC(=O)c1cc(-c2nncc(O)n2)nn1Cc1ccccc1F` [Compound 201], more than 1000 nM.
On the same count and under the same terms, the same measure for `CC(=O)c1cc(-c2ncc(F)c(NCC(F)(F)F)n2)nn1Cc1ccccc1F` [Compound 204]: 100 to 1000 nM; for `Cc1ccc(Cn2nc(-c3ncc(F)c(O)n3)cc2-c2ccon2)c(F)c1` [Compound 208]: 100 to 1000 nM.
Turning to `CCOC(=O)C(C)(C)c1nnc(-c2cc(-c3ccon3)n(Cc3ccccc3F)n2)nc1N` [Compound 209], the EC50 at sGC enzyme was more than 1000 nM.
On the same count and under the same terms, the same measure for `Oc1nc(-c2cc(-c3ccon3)n(Cc3ccno3)n2)ncc1F` [Compound 211]: more than 1000 nM; for `Cn1nccc1Cn1nc(-c2ncc(F)c(O)n2)cc1-c1ccon1` [Compound 212]: more than 1000 nM; for `Oc1nc(-c2cc(-c3ccon3)n(Cc3ccc(F)cc3)n2)ncc1F` [Compound 213]: 100 to 1000 nM.
Consider `Oc1nc(-c2cc(-c3ccon3)n(CC(F)(F)F)n2)ncc1F` [Compound 214], for which the EC50 on sGC enzyme was more than 1000 nM.
Regarding `Oc1nc(-c2cc(-c3ccon3)n(Cc3ncccn3)n2)ncc1F` [Compound 215], the EC50 at sGC enzyme was more than 1000 nM.
`Oc1nc(-c2cc(-c3ccon3)n(Cc3cncnc3)n2)ncc1F` [Compound 216]: the EC50 at sGC enzyme is more than 1000 nM.
